According to ChEMBL document CHEMBL1201862, “PubChem BioAssay data set” (2004):
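48-hour exposure; five concentrations; linearly interpolated endpoints. GI50 = concentration required for 50% inhibition of growth.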 Active and inactive are the calls of the source. No stated cut-off is given here; in the data, active = GI50 up to about 1.1 µM and inactive = higher.

Legend:
Test in all cases: NCI anticancer screen, dose series, 48 h
BT-549 = test system: BT-549
COLO 205 = test system: COLO 205
EKVX = test system: EKVX
HCT-15 = test system: HCT-15
HL-60 = test system: HL-60
HT-29 = test system: HT-29
IGROV-1 = test system: IGROV-1
K562 = test system: K562
MDA-MB-231 = test system: MDA-MB-231
MDA-N = test system: MDA-N
MOLT-4 = test system: MOLT-4
Malme-3M = test system: Malme-3M
NCI-H226 = test system: NCI-H226
OVCAR-5 = test system: OVCAR-5
PC-3 = test system: PC-3
RXF 393 = test system: RXF 393
SF-295 = test system: SF-295
SNB-19 = test system: SNB-19
U-251 = test system: U-251
UO-31 = test system: UO-31

SMILES	GI50 (BT-549)	GI50 (COLO 205)	GI50 (EKVX)	GI50 (HCT-15)	GI50 (HL-60)	GI50 (HT-29)	GI50 (IGROV-1)	GI50 (K562)	GI50 (MDA-MB-231)	GI50 (MDA-N)	GI50 (MOLT-4)	GI50 (Malme-3M)	GI50 (NCI-H226)	GI50 (OVCAR-5)	GI50 (PC-3)	GI50 (RXF 393)	GI50 (SF-295)	GI50 (SNB-19)	GI50 (U-251)	GI50 (UO-31)
COc1cc2c(cc1OC)C(=O)/C(=C/c1ccc(O)cc1)CC2	> 10 µM (inactive)	> 10 µM (inactive)	> 10 µM (inactive)	> 10 µM	7.31 µM (inactive)	> 10 µM (inactive)	> 10 µM (inactive)	> 10 µM (inactive)	> 10 µM (inactive)	> 10 µM (inactive)	> 10 µM (inactive)	> 10 µM (inactive)	> 10 µM (inactive)	> 10 µM (inactive)	> 10 µM (inactive)	> 10 µM (inactive)	> 10 µM (inactive)	> 10 µM (inactive)	> 10 µM (inactive)	2.34 µM (inactive)
Cc1cccc2cc3ccc4ccccc4c3cc12	> 100 µM (inactive)	19.4 µM (inactive)	21.2 µM (inactive)	47 µM	24.9 µM (inactive)	30.7 µM (inactive)	55 µM (inactive)	63.1 µM (inactive)	51.3 µM (inactive)	38.9 µM (inactive)	25.7 µM (inactive)	56.5 µM (inactive)	37 µM (inactive)	38.5 µM (inactive)	66.5 µM (inactive)	75.2 µM (inactive)	40.8 µM (inactive)	76.2 µM (inactive)	41.4 µM (inactive)	77.8 µM (inactive)
COc1cc([C@H]2CC(=O)C[C@@H](c3cc(OC)c(OC)c(OC)c3)C23C(=O)c2ccccc2C3=O)cc(OC)c1OC	> 100 µM (inactive)	> 100 µM (inactive)	91.8 µM (inactive)	> 100 µM	> 100 µM (inactive)	> 100 µM (inactive)	> 100 µM (inactive)	> 100 µM (inactive)	> 100 µM (inactive)	> 100 µM (inactive)	> 100 µM (inactive)	> 100 µM (inactive)	> 100 µM (inactive)	> 100 µM (inactive)	> 100 µM (inactive)	> 100 µM (inactive)	> 100 µM (inactive)	> 100 µM (inactive)	> 100 µM (inactive)	> 100 µM (inactive)
C=CCOc1ccccc1/N=N/C(C#N)=N\Nc1ccccc1OCC=C	> 100 µM (inactive)	> 100 µM (inactive)	> 100 µM (inactive)	> 100 µM	> 100 µM (inactive)	> 100 µM (inactive)	> 100 µM (inactive)	> 100 µM (inactive)	> 100 µM (inactive)	27.2 µM (inactive)	> 100 µM (inactive)	> 100 µM (inactive)	> 100 µM (inactive)	> 100 µM (inactive)	> 100 µM (inactive)	> 100 µM (inactive)	> 100 µM (inactive)	> 100 µM (inactive)	> 100 µM (inactive)	> 100 µM (inactive)
Cc1cc(N(CCOS(C)(=O)=O)CCOS(C)(=O)=O)ccc1/C=N/c1ccc(-c2nc(Cc3ccccc3)sc2C)cc1	9.12 µM (inactive)	1.43 µM (inactive)	4.27 µM (inactive)	11.2 µM	1.17 µM (inactive)	5.3 µM (inactive)	10.7 µM (inactive)	5.61 µM (inactive)	15.3 µM (inactive)	11.8 µM (inactive)	1.23 µM (inactive)	11.4 µM (inactive)	2.2 µM (inactive)	11.2 µM (inactive)	10.3 µM (inactive)	0.933 µM (active)	1.57 µM (inactive)	8.3 µM (inactive)	6.64 µM (inactive)	3.71 µM (inactive)
COc1ccc2cc(CNCCCCCCCCNCc3ccc4cc(OC)ccc4c3)ccc2c1	6.67 µM (inactive)	2.48 µM (inactive)	6.87 µM (inactive)	2 µM	1.58 µM (inactive)	2 µM (inactive)	5.21 µM (inactive)	0.975 µM (active)	13.7 µM (inactive)	7.74 µM (inactive)	2.77 µM (inactive)	6.85 µM (inactive)	14 µM (inactive)	6.9 µM (inactive)	1.45 µM (inactive)	8.07 µM (inactive)	5.3 µM (inactive)	4.1 µM (inactive)	3.66 µM (inactive)	6.78 µM (inactive)
CC(C)(C)OC(=O)C1CCC/C1=N/Nc1ccc([N+](=O)[O-])cc1[N+](=O)[O-] (stereo not given)	24.9 µM (inactive)	27 µM (inactive)	24.7 µM (inactive)	39.4 µM	44.3 µM (inactive)	36.5 µM (inactive)	25.5 µM (inactive)	15.7 µM (inactive)	20 µM (inactive)	30.8 µM (inactive)	17.7 µM (inactive)	65.5 µM (inactive)	21.3 µM (inactive)	43.3 µM (inactive)	10.3 µM (inactive)	33.2 µM (inactive)	25 µM (inactive)	41.5 µM (inactive)	22 µM (inactive)	17.6 µM (inactive)
[N-]=[N+]=C(C(=O)CN1CCCC1=O)S(=O)(=O)c1ccccc1	> 100 µM (inactive)	> 100 µM (inactive)	> 100 µM (inactive)	> 100 µM	> 100 µM (inactive)	> 100 µM (inactive)	> 100 µM (inactive)	> 100 µM (inactive)	> 100 µM (inactive)	> 100 µM (inactive)	> 100 µM (inactive)	> 100 µM (inactive)	> 100 µM (inactive)	> 100 µM (inactive)	> 100 µM (inactive)	> 100 µM (inactive)	> 100 µM (inactive)	> 100 µM (inactive)	> 100 µM (inactive)	> 100 µM (inactive)
Cc1[nH]c(-c2ccccc2)c(O)c1C(=O)OC12CC3CC(CC(C3)C1)C2	17.1 µM (inactive)	13.9 µM (inactive)	13.8 µM (inactive)	11.9 µM	55.6 µM (inactive)	3.99 µM (inactive)	14.1 µM (inactive)	> 100 µM (inactive)	18.5 µM (inactive)	17.4 µM (inactive)	12.5 µM (inactive)	14.1 µM (inactive)	14.1 µM (inactive)	13.8 µM (inactive)	15.5 µM (inactive)	6.73 µM (inactive)	2.93 µM (inactive)	15 µM (inactive)	14.9 µM (inactive)	17 µM (inactive)
O=C1/C(=C/c2ccc(O)c([N+](=O)[O-])c2)CCC/C1=C\c1ccc(O)c([N+](=O)[O-])c1	13.3 µM (inactive)	13.5 µM (inactive)	22.6 µM (inactive)	12.4 µM	14.6 µM (inactive)	12.3 µM (inactive)	8.93 µM (inactive)	15.7 µM (inactive)	21.9 µM (inactive)	7.57 µM (inactive)	13.9 µM (inactive)	8.63 µM (inactive)	11.6 µM (inactive)	15.4 µM (inactive)	13.3 µM (inactive)	10 µM (inactive)	18.4 µM (inactive)	11.7 µM (inactive)	9.33 µM (inactive)	15.2 µM (inactive)
CCC(=O)N1NC(=O)C(CC)(CC)C1=O	> 100 µM (inactive)	> 100 µM (inactive)	> 100 µM (inactive)	> 100 µM	> 100 µM (inactive)	> 100 µM (inactive)	> 100 µM (inactive)	> 100 µM (inactive)	> 100 µM (inactive)	> 100 µM (inactive)	> 100 µM (inactive)	0.276 µM (active)	> 100 µM (inactive)	> 100 µM (inactive)	> 100 µM (inactive)	> 100 µM (inactive)	> 100 µM (inactive)	> 100 µM (inactive)	> 100 µM (inactive)	> 100 µM (inactive)
C=C1CC[C@@H](C)[C@](C)(CCc2ccoc2)C/C=C\C=C/1C(=O)O	19.5 µM (inactive)	21 µM (inactive)	64.6 µM (inactive)	35.2 µM	16.5 µM (inactive)	36.7 µM (inactive)	51.4 µM (inactive)	32.3 µM (inactive)	59.2 µM (inactive)	22 µM (inactive)	27 µM (inactive)	33.4 µM (inactive)	35.6 µM (inactive)	> 100 µM (inactive)	28.9 µM (inactive)	29.9 µM (inactive)	38.8 µM (inactive)	> 100 µM (inactive)	34.3 µM (inactive)	34.1 µM (inactive)
COc1cc([C@@H]2C3C(=O)c4ccccc4C3[C@@H](c3cc(OC)c(OC)c(OC)c3)C23Cc2ccccc2C3=O)cc(OC)c1OC (stereo not given in full)	> 100 µM (inactive)	> 100 µM (inactive)	> 100 µM (inactive)	> 100 µM	> 100 µM (inactive)	> 100 µM (inactive)	24.3 µM (inactive)	> 100 µM (inactive)	> 100 µM (inactive)	> 100 µM (inactive)	> 100 µM (inactive)	> 100 µM (inactive)	> 100 µM (inactive)	> 100 µM (inactive)	> 100 µM (inactive)	> 100 µM (inactive)	> 100 µM (inactive)	> 100 µM (inactive)	> 100 µM (inactive)	> 100 µM (inactive)
COc1cc(OC)c(OC)cc1/C=C/c1cnnc2ccccc12	> 10 µM (inactive)	> 10 µM (inactive)	> 10 µM (inactive)	> 10 µM	> 10 µM (inactive)	> 10 µM (inactive)	> 10 µM (inactive)	7.85 µM (inactive)	> 10 µM (inactive)	4.05 µM (inactive)	> 10 µM (inactive)	> 10 µM (inactive)	> 10 µM (inactive)	> 10 µM (inactive)	4.33 µM (inactive)	> 10 µM (inactive)	> 10 µM (inactive)	> 10 µM (inactive)	> 10 µM (inactive)	> 10 µM (inactive)
